Measurements reported in patent US20230414624A1, “METHODS OF TREATING NEUROLOGICAL VENTILATORY INSUFFICIENCY” (Enalare Therapeutics Inc., priority 2022, published 2023).
Entries after “also recorded” stand apart in the source; their conditions may differ.

What was measured:
premature lambs = assay: Premature (preterm) lamb proof of concept study: spontaneous ventilation under IV bolus and ascending continuous infusion; type: in vivo
Experimental: One set of twin lambs were to be delivered premature via cesarian section, stabilized and managed for four hours. […] The protocol was reviewed and approved by the Institutional Animal Care and Use Committee at Thomas D. Morris, Inc., where the study was conducted.
During delivery and with local anesthesia (1 ml; 2% Lidocaine), lambs were instrumented with an endotracheal tube as well as carotid arterial and jugular catheters through an incision at approximately the midpoint of the anterior neck. Once the umbilical cord was tied and severed, lambs were transferred to a heated surgical bed under a radiant warming lamb. The arterial catheter was connected to a transducer for pressure monitoring and the venous catheter was connected to a pump for continuous infusion of 5% dextrose in water (D5W) at a rate of 6 ml/kg/hr. A reaction thermistor was inserted to monitor temperature and lambs were covered with plastic to minimize evaporative heat loss. The airway was suctioned and Surfactant (Curosurf, 2.5 ml/kg) was administered intratracheally over a period of 5 minutes in 4 positions (Trendelenburg, reverse Trendelenburg, and left and right lateral decubitus positions). Lambs were to receive four mechanical breaths for lung recruitment and then started on CPAP initiated at 5 cmH2O and continuously optimized to effect (4-8 cmH2O) along with fraction of inspired oxygen (FIO2) over the course of the study.
The formulation used was a 10 mg/mL aqueous solution (adjusted for the hydrogen sulfate salt and impurities) with a citric acid buffer and a pH of 3.2. The infusion was with ascending dose hourly, while the second lamb was to serve as sham control. […] The four, hourly doses are described in table 1.
For pulmonary function assessments, a pneumotach was placed between the endotracheal tube and the CPAP connector. At least ten representative breaths free of movement of atypical breathing artifact were recorded using a pulmonary function system designed for neonatal research (NewLifeBox-R, Advanced Life Diagnostics, Weener, Germany). For each period the rate, tidal volumes and minute ventilation was derived from an average of the ten breaths. To maintain a stable plain of anesthesia, repeat doses of fentanyl (1 μg IM) were given as needed throughout the protocol based on blood pressure response to stimulation. At the conclusion of the study, animals were sacrificed and tissue sampled harvested for subsequent histopathology.

[1] = 3 mg/kg IV bolus, animals; cited from earlier work
adult humans = details: 0.4 mg/kg/hr infusion; cited from earlier work
[2] = test lamb, ascending hourly infusion

In the case of `CCCNc1nc(NCCC)nc(N(C)OC)n1` [Compound 1, N-(4,6-Bis-n-propylamino-[1,3,5]triazin-2-yl)-O,N-dimethyl-hydroxylamine], the “Spontaneous breathing, both lambs” value (premature lambs; after bolus administration of a loading dose) was “immediately resulted in spontaneous breathing in both lambs”, the “Respiratory rate (RR), course over the four hours” value (premature lambs; in vivo) was “gradually decreased” and the “Spontaneous breathing after IV bolus” value (premature lambs; sham lamb 4.1 kg, no spontaneous breathing before, single IV bolus 2.4 mg/kg, no infusion) was “the lamb began breathing spontaneously. After several minutes, the spontaneous breathing efforts abated”. For the same molecule, the “Spontaneous breathing after IV bolus loading dose” value (premature lambs; test lamb 3.2 kg, no spontaneous breathing before, IV bolus 3.1 mg/kg during 0.4 mg/kg/hr infusion, then continuous infusion for four hours) was “the lamb began breathing spontaneously and never again required manual intervention”, the “Spontaneous minute ventilation (MV) at baseline and for 10 minutes after start of infusion” value (premature lambs; test lamb, 0.4 mg/kg/hr infusion without loading dose) was “zero” and the “Spontaneous minute ventilation (MV) immediately following the bolus loading dose” value (premature lambs; test lamb, IV bolus 3.1 mg/kg) was “approximately 1,100 mL/min”. For the same molecule, the “End tidal carbon dioxide level (EtCO2), course over the four hours” value (premature lambs; [2]) was “concomitant decrease; also recorded: progressive decline”, the “Heart rate and mean arterial pressure through the four hours” value (premature lambs; [2]) was “stable” and the “Tidal volume, course over the four hours” value (premature lambs; [2]) was “consistent rise”. For the same molecule, the “Minute ventilation (MV), course over the four hours” value (premature lambs; test lamb, ascending hourly infusion 0.4, 1.1, 2.0, 12 mg/kg/hr) was “continued to rise”, the “Minute ventilation (MV), all but the first three measurements of spontaneous breathing” value (premature lambs; test lamb, ascending hourly infusion, 1,344 mL/min = maximal MV of literature mechanical ventilation) was “exceeded 1,344 mL/min” and the “Tidal volume per kg of body weight versus lung protective range” value (premature lambs; test lamb, ascending hourly infusion, range 4 to 6 mL/kg) was “at least as deep and ultimately surpassed the lung protective range of 4 to 6 mL/kg; also recorded: always within or above the noted target tidal volume range”. The Respiratory rate (premature lambs; test lamb, whole study period, normal newborn lamb 36 to 48) was ≥ 70 breaths per minute, the “Plasma levels after bolus intravenous injection” value [1] was “transient therapeutic plasma levels” and the “Efficacy of the low dose in adult humans” value (adult humans) was “minimal effect; also recorded: limited efficacy; also recorded: humans; minimal efficacy”.
